Laboratory results published in patent EP0272791A2 (priority 1986, dated 1988).
Values joined by “and” are separate entries in the source; they are usually repeats but may differ in a detail not shown here. Identical values can stand only once. “Also recorded” adds a separate entry of the source. Like-named read-outs stand apart in the source and are kept apart here.

Experiments:
ANLL = assay: differential staining cytotoxicity assay (DiSC), fresh tumor specimens; type: cell-based, human; settings: for % of all specimens tested which were "sensitive" in vitro (< 30% cell survival): dexamethasone 0.4, cytarabine 3.3, vincristine […] continuous 4-day exposure, mechlorethamine 3.5, doxorubicin 1.67 μg/ml 1-hour exposure
CML-blast crisis = assay: as above; settings: patient CML-BC, 11/09/82 before and 12/14/82 after V + P
[1] = tested on: non-Hodgkin's lymphoma, multiple myeloma, and blast crisis CML; settings: data not shown; neoplasms considered together
ALL = settings: for Treated patients, Resistant / Untreated patients, Resistant / Treated patients, Sensitive / Untreated patients, Sensitive: No. of patients; for Treated patients, Resistant / Untreated patients, Resistant: resistant: > 30% cell survival; for Treated patients, Sensitive / Untreated patients, Sensitive: sensitive: < 30% cell survival; for in vitro activity (in words): active = < 30% cell survival, concentrations of Table 1; for % of all specimens tested which were "sensitive" in vitro (< 30% cell survival): dexamethasone 0.4, cytarabine 3.3, vincristine […] continuous 4-day exposure, mechlorethamine 3.5, doxorubicin 1.67 μg/ml 1-hour exposure
CLL [2] = settings: for Treated patients, Sensitive / Untreated patients, Sensitive: sensitive: < 30% cell survival
tumor cell specimens = assay: differential staining cytotoxicity assay (DiSC), general statements on drug exposure; type: cell-based, human; settings: for activity in the assay at a 1-hour exposure (in words): must be tested at a continuous exposure
Assorted solid tumors = assay: differential staining cytotoxicity assay (DiSC), fresh tumor specimens; type: cell-based, human; settings: for % of all specimens tested which were "sensitive" in vitro (< 30% cell survival): dexamethasone 0.4 μg/ml, cytarabine […], continuous 4-day exposure
multiple myeloma = assay: as above; settings: metachronous assays, no intervening therapy, patient MM-B, two dates
CLL [3] = assay: cells; settings: Homo sapiens, read-out: average % cell survival in vitro, Vincristine 0.08 µg/ml, continuous exposure; metachronous assays, no intervening therapy
Small Cell Lung Cancer = assay: differential staining cytotoxicity assay (DiSC), fresh tumor specimens; type: cell-based, human; settings: active = < 30% cell survival; concentrations of Table 1
[4] = tested on: Non-Small Cell Lung Cancer; assay: as above; type: cell-based, human; settings: active = < 30% cell survival; concentrations of Table 1
[5] = Doxorubicin 1.67 µg/ml, 1-hr exposure
[6] = cells from relapsed patients compared with untreated patients
[7] = Dexamethasone 0.4 µg/ml, continuous 4-day exposure
[8] = Dexamethasone 4.0 µg/ml, continuous 4-day exposure
[9] = No. of patients, Dexamethasone 0.4 µg/ml, continuous 4-day exposure, resistant: > 30% cell survival
[10] = No. of patients, Dexamethasone 0.4 µg/ml, continuous 4-day exposure
[11] = No. of patients, Dexamethasone 4.0 µg/ml, continuous 4-day exposure, resistant: > 30% cell survival
[12] = No. of patients, Dexamethasone 4.0 µg/ml, continuous 4-day exposure
[13] = active = < 30% cell survival, concentrations of Table 1
[14] = Vincristine 0.08 µg/ml, continuous 4-day exposure
[15] = Vincristine 0.08 µg/ml, continuous exposure, metachronous assays, no intervening therapy
[16] = Cytarabine 1.0 µg/ml, continuous 4-day exposure

In the case of `COc1cccc2c1C(=O)c1c(O)c3c(c(O)c1C2=O)C[C@@](O)(C(=O)CO)C[C@@H]3O[C@H]1C[C@H](N)[C@H](O)[C@H](C)O1` [Doxorubicin, doxorubicin], the “% of all specimens tested which were "sensitive" in vitro (< 30% cell survival)” value (ANLL) is reported as 48% (27), the “% cell survival” value (CML-blast crisis; Doxorubicin 1.6 μg/ml, 1 hour exposure, 60 min) is reported as 86% and 59% and the “resistance in vitro, previously treated vs previously untreated patients (in words)” value [1] is reported as “significantly more resistant”. For the same compound, the “Treated patients, Resistant” value (ALL; [5]) was 7, the “Untreated patients, Resistant” value (ALL; [5]) was 1 and the “Treated patients, Sensitive” value (ALL; [5]) was 4. For the same compound, the “Untreated patients, Sensitive” value (ALL; [5]) was 10, the “in vitro activity (in words)” value (ALL) was “somewhat more sensitive than ANLL” and the “resistance in the assay, relapsed (treated) vs untreated patients (in words)” value (shortened to “resistance … vs untreated patients (in words)”) (ALL; [6]) was “significantly more resistant”. The “% of all specimens tested which were "sensitive" in vitro (< 30% cell survival)” value (ALL) was 72% (18) and the “resistance in vitro, previously treated vs previously untreated patients (in words)” value (CLL [2]; prior treatment with alkylating agents (usually chlorambucil or cyclophosphamide) with or without prednisone) was “significantly more resistant”.
For `C[C@@H]1C[C@H]2[C@@H]3CCC4=CC(=O)C=C[C@]4(C)[C@@]3(F)[C@@H](O)C[C@]2(C)[C@@]1(O)C(=O)CO` [Dexamethasone, dexamethasone], the “% of all specimens tested which were "sensitive" in vitro (< 30% cell survival)” value (ANLL) was 7% (41), the “% cell survival” value (CML-blast crisis; Dexamethasone 4.0 μg/ml, continuous exposure) was 68% and the viability at 4 µg/mL (CML-blast crisis; Homo sapiens, read-out: % cell survival, Dexamethasone 4.0 μg/ml, continuous exposure) was 73%. For the same compound, the “activity in the assay at a 1-hour exposure (in words)” value (“activity in the assay” for short) (tumor cell specimens) was “not active”, the “Treated patients, Resistant” value (ALL; [7]) was 7 and the “Untreated patients, Resistant” value (ALL; [7]) was 6. For the same compound, the “Treated patients, Sensitive” value (ALL; [7]) was 4, the “Untreated patients, Sensitive” value (ALL; [7]) was 16 and the “Treated patients, Resistant” value (ALL; [8]) was 7. For the same compound, the “Untreated patients, Resistant” value (ALL; [8]) was 5, the “Treated patients, Sensitive” value (ALL; [8]) was 3 and the “Untreated patients, Sensitive” value (ALL; [8]) was 13. The “in vitro activity (in words)” value (ALL) was “active”, the “% of all specimens tested which were "sensitive" in vitro (< 30% cell survival)” value (ALL) was 61% (33) and the “Treated patients, Resistant” value (CLL [2]; [9]) was 13. For the same compound, the “Untreated patients, Resistant” value (CLL [2]; [9]) was 18, the “Treated patients, Sensitive” value (CLL [2]; [10]) was 2 and the “Untreated patients, Sensitive” value (CLL [2]; [10]) was 10. For the same compound, the “Treated patients, Resistant” value (CLL [2]; [11]) was 10, the “Untreated patients, Resistant” value (CLL [2]; [11]) was 15 and the “Treated patients, Sensitive” value (CLL [2]; [12]) was 2. The “Untreated patients, Sensitive” value (CLL [2]; [12]) was 10, the “in vitro activity (in words)” value (Assorted solid tumors; [13]) was “not active” and the “% of all specimens tested which were "sensitive" in vitro (< 30% cell survival)” value (Assorted solid tumors) was 0% (34).
Compound `O=NN(CCCl)C(=O)NCCCl` [Carmustine, carmustine] has a viability at 11 µg/mL (multiple myeloma; Homo sapiens, 1 h, read-out: average % cell survival in vitro, Carmustine […], 1 hour exposure) of 15%.
For `CC[C@]1(O)C[C@H]2CN(CCc3c([nH]c4ccccc34)[C@@](C(=O)OC)(c3cc4c(cc3OC)N(C=O)[C@H]3[C@@](O)(C(=O)OC)[C@H](OC(C)=O)[C@]5(CC)C=CCN6CC[C@]43[C@@H]65)C2)C1` [Vincristine, vincristine], the “% of all specimens tested which were "sensitive" in vitro (< 30% cell survival)” value (ANLL) was 22% (23), the viability at 0.08 µg/mL (CML-blast crisis; Homo sapiens, read-out: % cell survival, Vincristine 0.08 μg/ml, continuous exposure) was 69% and the “% cell survival” value (CML-blast crisis; Vincristine 0.08 μg/ml, continuous exposure) was 71%. For the same compound, the “activity in the assay” value (tumor cell specimens) was “not active”, the “Treated patients, Resistant” value (ALL; [14]) was 10 and the “Untreated patients, Resistant” value (ALL; [14]) was 6. For the same compound, the “Treated patients, Sensitive” value (ALL; [14]) was 1, the “Untreated patients, Sensitive” value (ALL; [14]) was 10 and the “average % cell survival in vitro” value (ALL; [15]) was 44% and 71%. For the same compound, the “in vitro activity (in words)” value (ALL) was “considerably more sensitive”, the “resistance … vs untreated patients (in words)” value (ALL; [6]) was “significantly more resistant” and the “% of all specimens tested which were "sensitive" in vitro (< 30% cell survival)” value (ALL) was 56% (25). For the same compound, the “average % cell survival in vitro” value (CLL [2]; [15]) was 48%, the viability at 0.08 µg/mL (multiple myeloma; Homo sapiens, read-out: average % cell survival in vitro, Vincristine 0.08 µg/ml, continuous exposure) was 0% and the “average % cell survival in vitro” value (multiple myeloma; Vincristine 0.08 µg/ml, continuous exposure) was 0%. The viability at 0.08 µg/mL (CLL [3]) was 46%.
`O=P1(N(CCCl)CCCl)NCCCO1` (centres unmarked) [cyclophosphamide] was tested, and the “activity in vitro (in words)” value (tumor cell specimens) was “not active in vitro”.
In the case of `Nc1ccn([C@@H]2O[C@H](CO)[C@@H](O)[C@@H]2O)c(=O)n1` [Cytarabine, cytarabine], the “in vitro activity (in words)” value (ANLL; [13]) is reported as “active”, the “% of all specimens tested which were "sensitive" in vitro (< 30% cell survival)” value (ANLL) is reported as 76% (34) and the “activity in the assay” value (tumor cell specimens) is reported as “not active”. The “Treated patients, Resistant” value (ALL; [16]) was 7, the “Untreated patients, Resistant” value (ALL; [16]) was 4 and the “Treated patients, Sensitive” value (ALL; [16]) was 2. For the same compound, the “Untreated patients, Sensitive” value (ALL; [16]) was 6, the “in vitro activity (in words)” value (ALL) was “active” and the “% of all specimens tested which were "sensitive" in vitro (< 30% cell survival)” value (ALL) was 68% (19). For the same compound, the “resistance … vs untreated patients (in words)” value (ALL; the higher concentration of cytarabine) was “significantly more resistant” and the “% of all specimens tested which were "sensitive" in vitro (< 30% cell survival)” value (Assorted solid tumors) was 3% (31).
With `N.N.[Cl][Pt][Cl]` [Cisplatin, cisplatin] the “in vitro activity (in words)” value (Small Cell Lung Cancer) was “high activity”, the “in vitro activity (in words)” value [4] was “most active agent tested; also recorded: moderate activity” and the “in vitro activity (in words)” value (CLL [2]; [13]) was “completely refractory”.
For `N[C@@H](Cc1ccc(N(CCCl)CCCl)cc1)C(=O)O` [Melphalan, melphalan], the “Treated patients, Resistant” value (CLL [2]) was 11 and 8.
